Entries after “also recorded” stand apart in the source; their conditions may differ.
Assays:
IFN-γ = IFN-γ content in serum (sandwich ELISA) after tail vein administration of synthetic glycolipid to mice; format: in vivo, C57BL/6 mice; conditions: for IFN-γ production level in serum compared with α-GalCer and carba-glycolipid A: 100 μg/kg body weight, FIG. 1; for IFN-γ production level in serum compared with α-GalCer and carba-glycolipid A / IFN-γ production level in serum compared with α-GalCer: 6-60 hr
Description: (§1) DMSO solutions (1 mg/mL concentration) of α-GalCer, carba-glycolipid A, compound 2-9, compound 3-4, compound 3-7 and compound 3-10 were prepared. The above-mentioned DMSO solutions were diluted with saline (manufactured by Otsuka Pharmaceutical Co., Ltd.) containing 0.5% Tween 20 (Bio-Rad) such that the dose would be 100 μg/kg body weight when 200 μL is administered to one mouse from the tail vein.
Each of the prepared solutions (200 μL) of carba-glycolipid A, compound 2-9, compound 3-4, compound 3-7 and compound 3-10 was injected to C57BL/6 mice (5 per group) from the tail vein. α-GalCer was used as a control substance, and 200 μL of α-GalCer solution prepared to a dose of 100 μg/kg body weight according to a similar method was injected from the tail vein. A group administered with a medium (200 μL of saline containing 0.5% Tween 20) was taken as a negative control. The blood (80 μL) was taken from the orbital plexus venosus 6, 12, 24, 36, 48 and 60 hr after administration, and the serum was prepared.
The content of IFN-γ in the serum after lapse of 6, 12, 24, 36, 48 and 60 hr from the administration was measured by sandwich ELISA (ENDOGEN). The measurement results (average value) of the IFN-γ production level and the standard deviation (STDEV) thereof are shown in FIG. 1.
By a method similar to Experimental Example 1, the content of IFN-γ in the serum after lapse of 6, 12, 24, 36, 48 and 60 hr from the administration of α-GalCer, compound 2-9, compound 3-4, compound 3-7, compound 3-10, compound 3-13 and compound 3-16 was measured. The measurement results (average value) of the IFN-γ production level and the standard deviation (STDEV) thereof are shown in FIG. 4.
By a method similar to Experimental Example 1 except that the dose of α-GalCer was 2 μg/mouse and the dose of compound 2-9 was 2 μg/mouse, 0.2 μg/mouse, 0.02 μg/mouse, 0.002 μg/mouse or 0.0002 μg/mouse, the content of IFN-γ in the serum after lapse of 6, 12, 24, 36, 48 and 60 hr from the administration of α-GalCer and compound 2-9 was measured. The measurement results (average value) of the IFN-γ production level and the standard deviation (STDEV) thereof are shown in FIG. 5.

IL-12 = IL-12 content in serum (Cytometric bead array) after tail vein administration of synthetic glycolipid to mice; format: in vivo, C57BL/6 mice; conditions: Experimental Example 3; 2, 0.2 or 0.02 μg/mouse; 3 and 6 hr; FIG. 9
Description: as §1, with “vein. […]” for “vein.”
The content of IL-12 in the serum after lapse of 3, 6 and 12 hr from the administration was measured by Cytometric bead array system (BD Biosciences), which is one kind of the ELISA method. […]
By a method similar to Experimental Example 1, the content of IL-12(p70) in the serum after lapse of 3 and 6 hr from the administration of α-GalCer, compound 2-9, compound 3-4, compound 3-7, compound 3-10, compound 3-13 and compound 3-16 was measured. […]
By a method similar to Experimental Example 1 except that the dose of α-GalCer and compound 2-9 was 2 μg/mouse, 0.2 μg/mouse or 0.02 μg/mouse, the content of IL-12(p70) in the serum after lapse of 3 and 6 hr from the administration of α-GalCer and compound 2-9 was measured. […]

IL-4 = IL-4 content in serum (Cytometric bead array) after tail vein administration of synthetic glycolipid to mice; format: in vivo, C57BL/6 mice; conditions: Experimental Example 3; 2, 0.2 or 0.02 μg/mouse; 3 and 6 hr; FIG. 7
Description: as §1, with “vein. […]” for “vein.”
The content of IL-4 in the serum after lapse of 3, 6 and 12 hr from the administration was measured by Cytometric bead array system (BD Biosciences), which is one kind of the ELISA method. […]
By a method similar to Experimental Example 1, the content of IL-4 in the serum after lapse of 3 and 6 hr from the administration of α-GalCer, compound 2-9, compound 3-4, compound 3-7, compound 3-10, compound 3-13 and compound 3-16 was measured. […]
By a method similar to Experimental Example 1 except that the dose of α-GalCer and compound 2-9 was 2 μg/mouse, 0.2 μg/mouse or 0.02 μg/mouse, the content of IL-4 in the serum after lapse of 3 and 6 hr from the administration of α-GalCer and compound 2-9 was measured. […]

[1] = non-patent document 7; cited from earlier work
NKT cells = conditions: non-patent document 10; cited from earlier work
human NKT cells = conditions: cited from earlier work
[2] = Experimental Example 1, tail vein
[3] = Experimental Example 1, conclusion from IFN-γ, IL-4 and IL-12 levels
[4] = Experimental Example 2, conclusion from IFN-γ, IL-4 and IL-12 levels
[5] = Experimental Example 2, tail vein, FIG. 4

Row | SMILES | IFN-γ production level in serum compared with α-GalCer and carba-glycolipid A (IFN-γ; [2]) | Selective induction of IFN-γ production compared to α-GalCer and carba-glycolipid A (IFN-γ; [3]) | Selective induction of IFN-γ production compared to α-GalCer (IFN-γ; [4]) | IFN-γ production level in serum compared with α-GalCer (IFN-γ; [5]) | also measured
1 | CCCCCCCCCCCCCCCCCCCCCCCCCC(=O)N[C@@H](CO[C@H]1OC(CC)[C@H](O)[C@H](O)C1O)[C@H](O)[C@H](O)CCCCCCCCCCCCCC (stereo partly shown) [compound 3-4] | larger amount of IFN-γ than α-GalCer and carba-glycolipid A | selectively induced production of IFN-γ in larger amounts | selectively induced production of IFN-γ in larger amounts | larger amount of IFN-γ than α-GalCer | 
2 | CCCCCCCCCCCCCCCCCCCCCCCCCC(=O)N[C@@H](CO[C@H]1OC(CF)[C@H](O)[C@H](O)C1O)[C@H](O)[C@H](O)CCCCCCCCCCCCCC (stereo partly shown) [compound 3-7] | larger amount of IFN-γ than α-GalCer and carba-glycolipid A | selectively induced production of IFN-γ in larger amounts | selectively induced production of IFN-γ in larger amounts | larger amount of IFN-γ than α-GalCer | 
3 | CCCCCCCCCCCCCCCCCCCCCCCCCC(=O)N[C@@H](CO[C@H]1OC(C)[C@H](O)[C@H](O)C1O)[C@H](O)[C@H](O)CCCCCCCCCCCCCC (stereo partly shown) [compound 3-10] | larger amount of IFN-γ than α-GalCer and carba-glycolipid A | selectively induced production of IFN-γ in larger amounts | selectively induced production of IFN-γ in larger amounts | larger amount of IFN-γ than α-GalCer | 
4 | CCCCCCCCCCCCCCCCCCCCCCCCCC(=O)N[C@@H](CO[C@H]1OC(COC)[C@H](O)[C@H](O)C1O)[C@H](O)[C@H](O)CCCCCCCCCCCCCC (stereo partly shown) [compound 2-9] | larger amount of IFN-γ than α-GalCer and carba-glycolipid A; also recorded: most strongly | selectively induced production of IFN-γ in larger amounts | selectively induced production of IFN-γ in larger amounts | larger amount of IFN-γ than α-GalCer; also recorded: most strongly | IFN-γ production level in serum compared with α-GalCer (IFN-γ; Experimental Example 3, compound 2-9 at 2 to 0.0002 μg/mouse, α-GalCer 2 μg/mouse, FIG. 5): larger amount of IFN-γ than α-GalCer even by administration at a lower concentration; Selective induction of IFN-γ production compared to α-GalCer (IFN-γ; Experimental Example 3, lower doses of compound 2-9): selectively induced production of IFN-γ in larger amounts; IL-12(p70) production level in serum as compared with α-GalCer (IL-12): up to 4 fold; IL-4 production level in serum (IL-4): decreased as the dose of compound 2-9 was reduced
5 | CCCCCCCCCCCCCCCCCCCCCCCCCC(=O)N[C@@H](CO[C@H]1OC(COCC)[C@H](O)[C@H](O)C1O)[C@H](O)[C@H](O)CCCCCCCCCCCCCC (stereo partly shown) [compound 3-13] |  |  | selectively induced production of IFN-γ in larger amounts | larger amount of IFN-γ than α-GalCer | 
6 | CCCCCCCCCCCCCCCCCCCCCCCCCC(=O)N[C@@H](COC1OC(CO)C(O)C(O)C1O)[C@H](O)[C@H](O)CCCCCCCCCCCCCC (stereo partly drawn) [α-GalCer, reference compound] |  |  |  |  | Immunostimulatory activity in a series of synthesis analogs [1]: shows the strongest activity; IFN-γ/IL-4 ratio (IFN-γ; Experimental Example 1): 2
7 | CCCCCCCCCCCCCCCCCCCCCCCCCC(=O)N[C@@H](CO[C@H]1CC(CO)[C@H](O)C(O)C1O)[C@H](O)[C@H](O)CCCCCCCCCCCCCC (stereo partly shown) [carba-glycolipid A] |  |  |  |  | Induction of IFN-γ production by NKT cells (NKT cells): strongly induces IFN-γ production; Activity on human NKT cells in vitro (human NKT cells): strong activity
8 | CCCCCCCCCCCCCCCCCCCCCCCCCC(=O)N[C@@H](CO[C@H]1OC(COCCC)[C@H](O)[C@H](O)C1O)[C@H](O)[C@H](O)CCCCCCCCCCCCCC (stereo partly shown) [compound 3-16] |  |  | selectively induced production of IFN-γ in larger amounts | larger amount of IFN-γ than α-GalCer | 
